The values below come from patent publication US11559538B2, “Substituted 1,2-oxaborolan-2-ols as PDE4 inhibitors” (Pfizer Inc., priority 2018, dated 2023).

Where two headings read alike, the source gives them in different places.

One experiment has as its system IFNγ. Nature of the experiment: Cytokine assay: IFNγ release from PHA-L stimulated human PBMCs. The class given is cell-based. Summed up:
(§1)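 PBMC thaw, ~250k cells/well; cpd pre-incubation ~10 min RT; PHA-L 3.5 μg/mL final; 48 h, 37° C, 5% CO2; supernatant HTRF; IC50 by 4-parameter logistic.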

Another experiment relates to IL-4. The experiment can be described thus: Cytokine assay: IL-4 release from PHA-L stimulated human PBMCs. To be noted: read-out: IL4 IC50. The class given is cell-based. Summed up:
as §1

Experiment [1] concerns the target PDE4B (aa 152-484, Uniprot ID Q07343) (Homo sapiens (Human), UniProt Q07343). Nature of the experiment: PDE4 SPA assay (scintillation proximity assay). It is filed as biochemical. To be noted: read-out: PDE4B2 IC50. Summed up: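 PDE4B (aa 152-484, ~81.6 pM) preincubated ~10 min with compound, then 1 μM ³H/unlabeled cAMP added in Tris pH 7.5, 1.3 mM MgCl2, 0.004% Brij 35, ~2% DMSO; 30 min at RT. Product captured on SPA beads and counted; IC50 by four-parameter logistic fit.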
A general note: SPA uses beads or plates that emit light when radiolabelled molecules are held near them.

In a further experiment the test system is IL-13. Nature of the experiment: Cytokine assay: IL-13 release from PHA-L stimulated human PBMCs. The class given is cell-based. The note with it: read-out: IL13 IC50. Summed up:
as §1

PDE4B (aa 152-484, Uniprot ID Q07343), sequence (Q07343 324-656): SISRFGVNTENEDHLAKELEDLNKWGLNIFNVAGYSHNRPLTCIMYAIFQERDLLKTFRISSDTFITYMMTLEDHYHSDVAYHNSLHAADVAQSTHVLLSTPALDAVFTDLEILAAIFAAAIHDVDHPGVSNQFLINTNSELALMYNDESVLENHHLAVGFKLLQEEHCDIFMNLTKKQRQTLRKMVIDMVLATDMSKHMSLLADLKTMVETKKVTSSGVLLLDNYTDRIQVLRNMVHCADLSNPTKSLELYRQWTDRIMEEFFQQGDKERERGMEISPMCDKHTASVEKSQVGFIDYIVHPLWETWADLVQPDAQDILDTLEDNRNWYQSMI

On to `CCCOc1cc(-c2cccc(C3(C)COB(O)C3)n2)ccc1OC` (stereo not drawn) [Example 29, 4-(6-(4-methoxy-3-propoxyphenyl)pyridin-2-yl)-4-methyl-1,2-oxaborolan-2-ol], for which the IC50 – broadly, the concentration that inhibits the measured activity by half – came out at 4.82 nM in the experiment on IFNγ (Homo sapiens, PBMC); 9.51 nM with IL-4 (Homo sapiens, PBMC); 10.5 nM in experiment [1]; 3470 nM in the experiment on IL-13 (Homo sapiens, PBMC).

Regarding `CCCOc1cc(-c2cc(C3CB(O)OC3C)cnn2)ccc1OC` (stereo not drawn) [Example 30, 4-(6-(4-methoxy-3-propoxyphenyl)pyridazin-4-yl)-5-methyl-1,2-oxaborolan-2-ol], the IC50 in the experiment with IFNγ (Homo sapiens, PBMC) is 11.6 nM; in the experiment on IL-4 (Homo sapiens, PBMC), 70.7 nM; in experiment [1] it was 15.5 nM; with IL-13 (Homo sapiens, PBMC), 10000 nM.

Turning to `CCCOc1cc(-c2cncc(C3(CO)COB(O)C3)c2)ccc1OC` (stereo not drawn) [Example 31, 4-(hydroxymethyl)-4-(5-(4-methoxy-3-propoxyphenyl)pyridin-3-yl)-1,2-oxaborolan-2-ol], the IC50 in the experiment on IFNγ (Homo sapiens, PBMC) is 2.96 nM; with IL-4 (Homo sapiens, PBMC), 3.92 nM; in experiment [1] it was 4.2 nM; with IL-13 (Homo sapiens, PBMC) it was 5730 nM.

Regarding `COc1ccc(-c2cncc(C3COB(O)C3)c2)cc1OC` (stereo not drawn) [Example 32, 4-(5-(3,4-dimethoxyphenyl)pyridin-3-yl)-1,2-oxaborolan-2-ol], the IC50 in the experiment with IFNγ (Homo sapiens, PBMC) stood at 8.47 nM; in the experiment with IL-4 (Homo sapiens, PBMC) it was 64 nM; in experiment [1], 13 nM; with IL-13 (Homo sapiens, PBMC) it was 2250 nM.

As for `CCOc1cc(-c2cncc(C3COB(O)C3)c2)ccc1OC` (stereo not drawn) [Example 33, 4-(5-(3-ethoxy-4-methoxyphenyl)pyridin-3-yl)-1,2-oxaborolan-2-ol], the 50% inhibitory concentration (IC50) stood at 1.44 nM in the experiment on IFNγ (Homo sapiens, PBMC); 39.8 nM in the experiment with IL-4 (Homo sapiens, PBMC); 1.25 nM in experiment [1]; 181 nM in the experiment on IL-13 (Homo sapiens, PBMC).

Turning to `CCCOc1cc(-c2cncc(C3COB(O)C3)c2)ccc1OC` (stereo not drawn) [Example 34, 4-(5-(4-methoxy-3-propoxyphenyl)pyridin-3-yl)-1,2-oxaborolan-2-ol], the IC50 was found to be 1.39 nM with IFNγ (Homo sapiens, PBMC); 14.3 nM in the experiment with IL-4 (Homo sapiens, PBMC); 0.52 nM in experiment [1]; 309 nM in the experiment on IL-13 (Homo sapiens, PBMC).

As to `COc1ccc(-c2cncc(C3COB(O)C3)c2)cc1OC(C)C` (stereo not drawn) [Example 35, 4-(5-(3-isopropoxy-4-methoxyphenyl)pyridin-3-yl)-1,2-oxaborolan-2-ol], the IC50 with IFNγ (Homo sapiens, PBMC) was 1.55 nM; in the experiment on IL-4 (Homo sapiens, PBMC) it was 6.98 nM; in experiment [1], 1.17 nM; in the experiment with IL-13 (Homo sapiens, PBMC), 230 nM.

As to `COc1ccc(-c2cncc(C3COB(O)C3)c2)cc1OC1CC1` (stereo not drawn) [Example 36, 4-(5-(3-cyclopropoxy-4-methoxyphenyl)pyridin-3-yl)-1,2-oxaborolan-2-ol], the IC50 in the experiment on IFNγ (Homo sapiens, PBMC) stood at 1.27 nM; with IL-4 (Homo sapiens, PBMC), 5.25 nM; in experiment [1], 0.98 nM; in the experiment with IL-13 (Homo sapiens, PBMC), 476 nM.

Take `COc1ccc(-c2cncc(C3COB(O)C3)c2)cc1OCCF` (stereo not drawn) [Example 39, 4-(5-(3-(2-fluoroethoxy)-4-methoxyphenyl)pyridin-3-yl)-1,2-oxaborolan-2-ol]: the IC50 in the experiment on IFNγ (Homo sapiens, PBMC) was determined as 1.82 nM; in the experiment with IL-4 (Homo sapiens, PBMC) it was 13.8 nM; in experiment [1], 1.63 nM; in the experiment with IL-13 (Homo sapiens, PBMC), 182 nM.

Regarding `COc1ccc(-c2cccc(C3COB(O)C3)c2)cc1OCCCF` (stereo not drawn) [Example 40, 4-(3′-(3-fluoropropoxy)-4′-methoxy-[1,1′-biphenyl]-3-yl)-1,2-oxaborolan-2-ol], the IC50 with IFNγ (Homo sapiens, PBMC) worked out at 1.28 nM; in the experiment on IL-4 (Homo sapiens, PBMC), 29.2 nM; in experiment [1], 0.37 nM; in the experiment with IL-13 (Homo sapiens, PBMC), 175 nM.

With `CCOc1c(OC)ccc(-c2cncc(C3COB(O)C3)c2)c1C(F)F` (stereo not drawn) [Example 41, 4-(5-(2-(difluoromethyl)-3-ethoxy-4-methoxyphenyl)pyridin-3-yl)-1,2-oxaborolan-2-ol], the IC50 in the experiment with IFNγ (Homo sapiens, PBMC) turned out to be 1.87 nM; with IL-4 (Homo sapiens, PBMC), 6.2 nM; in experiment [1] it was 6.85 nM; with IL-13 (Homo sapiens, PBMC), 397 nM.

Consider `CCCOc1c(OC)ccc(-c2cccc(C3COB(O)C3)c2)c1C#N` (stereo not drawn) [Example 42, 3′-(2-hydroxy-1,2-oxaborolan-4-yl)-4-methoxy-3-propoxy-[1,1′-biphenyl]-2-carbonitrile], for which the half-maximal inhibitory concentration (IC50) in the experiment with IFNγ (Homo sapiens, PBMC) was 1.55 nM; in the experiment on IL-4 (Homo sapiens, PBMC), 90.4 nM; in experiment [1], 0.35 nM; in the experiment on IL-13 (Homo sapiens, PBMC) it was 205 nM.

On to `CCCOc1c(OC)ccc(-c2cccc(C3=CB(O)OC3)c2)c1C#N` [Example 43, 3′-(2-hydroxy-2,5-dihydro-1,2-oxaborol-4-yl)-4-methoxy-3-propoxy-[1,1′-biphenyl]-2-carbonitrile], for which the IC50 in the experiment with IFNγ (Homo sapiens, PBMC) turned out to be 76 nM; in the experiment on IL-4 (Homo sapiens, PBMC), 233 nM; in experiment [1], 8.23 nM; in the experiment on IL-13 (Homo sapiens, PBMC) it was 10000 nM.

For the molecule `CCOc1cc(-c2cncc(C3COB(O)C3)c2)cc(F)c1OC` (stereo not drawn) [Example 44, 4-(5-(3-ethoxy-5-fluoro-4-methoxyphenyl)pyridin-3-yl)-1,2-oxaborolan-2-ol], the IC50 with IFNγ (Homo sapiens, PBMC) was 1.34 nM; with IL-4 (Homo sapiens, PBMC), 7.22 nM; in experiment [1], 2.5 nM; in the experiment on IL-13 (Homo sapiens, PBMC), 167 nM.

For the molecule `CCOc1cc(-c2cncc(C3COB(O)C3)c2)c(F)cc1OC` (stereo not drawn) [Example 46, 4-(5-(5-ethoxy-2-fluoro-4-methoxyphenyl)pyridin-3-yl)-1,2-oxaborolan-2-ol], the IC50 in the experiment with IFNγ (Homo sapiens, PBMC) came to 3.77 nM; with IL-4 (Homo sapiens, PBMC), 11.8 nM; in experiment [1], 3.46 nM; in the experiment with IL-13 (Homo sapiens, PBMC) it was 317 nM.

Regarding `CCOc1cc(-c2cncc(C3COB(O)C3)c2)c(Cl)cc1OC` (stereo not drawn) [Example 47, 4-(5-(2-chloro-5-ethoxy-4-methoxyphenyl)pyridin-3-yl)-1,2-oxaborolan-2-ol], the IC50 is 1.54 nM with IFNγ (Homo sapiens, PBMC); 4.11 nM in the experiment with IL-4 (Homo sapiens, PBMC); 3.01 nM in experiment [1]; 143 nM in the experiment on IL-13 (Homo sapiens, PBMC).

Turning to `CCCOc1nc(-c2cncc(C3COB(O)C3)c2)c(F)cc1OC` (stereo not drawn) [Example 48, 4-(3-fluoro-5-methoxy-6-propoxy-[2,3′-bipyridin]-5′-yl)-1,2-oxaborolan-2-ol], the half-maximal inhibitory concentration (IC50) in the experiment on IFNγ (Homo sapiens, PBMC) is 0.98 nM; in the experiment with IL-4 (Homo sapiens, PBMC) it was 0.82 nM; in experiment [1], 0.12 nM; in the experiment on IL-13 (Homo sapiens, PBMC), 252 nM.

Consider `CCCOc1cc(-c2cncc(C3COB(O)C3)c2)cnc1OC` (stereo not drawn) [Example 51, 4-(6′-methoxy-5′-propoxy-[3,3′-bipyridin]-5-yl)-1,2-oxaborolan-2-ol], for which the IC50 with IFNγ (Homo sapiens, PBMC) was 1.64 nM; with IL-4 (Homo sapiens, PBMC) it was 3.73 nM; in experiment [1], 1.27 nM; with IL-13 (Homo sapiens, PBMC) it was 337 nM.

Regarding `CCOc1cc(-c2cc(C3COB(O)C3)cnc2C)ccc1OC` (stereo not drawn) [Example 52, 4-(5-(3-ethoxy-4-methoxyphenyl)-6-methylpyridin-3-yl)-1,2-oxaborolan-2-ol], the IC50 is 5.74 nM with IFNγ (Homo sapiens, PBMC); 14.6 nM in the experiment on IL-4 (Homo sapiens, PBMC); 9.25 nM in experiment [1]; 2610 nM with IL-13 (Homo sapiens, PBMC).

Turning to `CCOc1cc(-c2cncc(C3COB(O)C3)c2C)ccc1OC` (stereo not drawn) [Example 53, 4-(5-(3-ethoxy-4-methoxyphenyl)-4-methylpyridin-3-yl)-1,2-oxaborolan-2-ol], the concentration for half-maximal inhibition (IC50) came to 0.6 nM with IFNγ (Homo sapiens, PBMC); 4.87 nM in the experiment with IL-4 (Homo sapiens, PBMC); 1.41 nM in experiment [1]; 115 nM in the experiment on IL-13 (Homo sapiens, PBMC).

Turning to `CCCOc1cc(-c2nc(C)cc(C3COB(O)C3)n2)ccc1OC` (stereo not drawn) [Example 54, 4-(2-(4-methoxy-3-propoxyphenyl)-6-methylpyrimidin-4-yl)-1,2-oxaborolan-2-ol], the IC50 in the experiment with IFNγ (Homo sapiens, PBMC) stood at 4.2 nM; with IL-4 (Homo sapiens, PBMC), 5.58 nM; in experiment [1] it was 7.77 nM; with IL-13 (Homo sapiens, PBMC), 1490 nM.

In the case of `CCCOc1cc(-c2nc(C3COB(O)C3)cc(C(F)(F)F)n2)ccc1OC` (stereo not drawn) [Example 55, 4-(2-(4-methoxy-3-propoxyphenyl)-6-(trifluoromethyl)pyrimidin-4-yl)-1,2-oxaborolan-2-ol], the IC50 in the experiment on IFNγ was 2.27 nM; in the experiment on IL-4 it was 3.94 nM; in experiment [1], 2.21 nM; in the experiment on IL-13, 576 nM.

As to `CCOc1cc(-c2cncc(C3COB(O)C3)n2)ccc1OC` (stereo not drawn) [Example 56, 4-(6-(3-ethoxy-4-methoxyphenyl)pyrazin-2-yl)-1,2-oxaborolan-2-ol], the IC50 in the experiment with IFNγ (Homo sapiens, PBMC) came out at 3.62 nM; in the experiment with IL-4 (Homo sapiens, PBMC) it was 68 nM; in experiment [1] it was 2.81 nM; with IL-13 (Homo sapiens, PBMC) it was 446 nM.

`CCCOc1cc(-c2nc(CO)cc(C3COB(O)C3)n2)ccc1OC` (stereo not drawn) [Example 57, 4-(6-(hydroxymethyl)-2-(4-methoxy-3-propoxyphenyl)pyrimidin-4-yl)-1,2-oxaborolan-2-ol]: the 50% inhibitory concentration (IC50) with IFNγ (Homo sapiens, PBMC) was 2.29 nM; in the experiment with IL-4 (Homo sapiens, PBMC) it was 7.54 nM; in experiment [1], 10.2 nM; in the experiment on IL-13 (Homo sapiens, PBMC), 239 nM.

As to `CCOc1cc(-c2nc(C3COB(O)C3)cs2)ccc1OC` (stereo not drawn) [Example 58, 4-(2-(3-ethoxy-4-methoxyphenyl)thiazol-4-yl)-1,2-oxaborolan-2-ol], the 50% inhibitory concentration (IC50) is 1.81 nM with IFNγ (Homo sapiens, PBMC); 163 nM in the experiment with IL-4 (Homo sapiens, PBMC); 0.72 nM in experiment [1]; 103 nM in the experiment with IL-13 (Homo sapiens, PBMC).

For `CCCOc1nc(-c2cncc(C3COB(O)C3)c2)ccc1OC` (stereo not drawn) [Example 60, 4-(5-methoxy-6-propoxy-[2,3′-bipyridin]-5′-yl)-1,2-oxaborolan-2-ol], the IC50 with IFNγ (Homo sapiens, PBMC) was 0.53 nM; with IL-4 (Homo sapiens, PBMC), 2.04 nM; in experiment [1], 0.34 nM; with IL-13 (Homo sapiens, PBMC), 308 nM.

Take `COc1ccc(-c2cccc(C3COB(O)C3)c2)cc1OCCF` (stereo not drawn) [Example 63, 4-(3′-(2-fluoroethoxy)-4′-methoxy-[1,1′-biphenyl]-3-yl)-1,2-oxaborolan-2-ol]: the IC50 in the experiment on IFNγ (Homo sapiens, PBMC) worked out at 2.75 nM; in the experiment on IL-4 (Homo sapiens, PBMC) it was 57.9 nM; in experiment [1] it was 1.62 nM; in the experiment with IL-13 (Homo sapiens, PBMC) it was 312 nM.
